{"source": "ChEMBL document CHEMBL2057146", "about": "“Improvement by sodium dl-α-tocopheryl-6-O-phosphate treatment of moisture-retaining ability in stratum corneum through increased ceramide levels” (Bioorg Med Chem, 2012)", "key": {"[1]": {"system": "Homo sapiens", "assay": "Increase in ceramide content in human skin at 0.3 to 1% administered topically after 11 days relative to vehicle treated control", "type": "functional"}, "[2]": {"system": "Keratinocyte", "assay": "Increase in ceramide content in keratinocytes at 1% after 6 days relative to vehicle treated control", "type": "functional"}, "[3]": {"system": "Homo sapiens", "assay": "Increase in ceramide content in human skin at 2% administered topically after 4 weeks relative to vehicle treated control", "type": "functional"}, "[4]": {"system": "Homo sapiens", "assay": "Increase in ceramide content in human skin at 4% administered topically after 4 weeks relative to vehicle treated control", "type": "functional"}, "[5]": {"system": "Keratinocyte", "assay": "Increase in ceramide content in keratinocytes at […] after 24 hrs relative to vehicle treated control", "type": "functional"}, "[6]": {"system": "Keratinocyte", "assay": "Increase in ceramide content in normal human keratinocytes at 1 to 30 uM after 6 days relative to vehicle treated control", "type": "functional"}, "[7]": {"assay": "Upregulation of SPTLCB1 mRNA expression in neonatal human foreskin keratinocytes at 10 uM after 4 days relative to vehicle treated control", "type": "functional, cell-based", "conditions": "Keratinocyte"}, "[8]": {"assay": "Upregulation of SPTLCB2 mRNA expression in neonatal human foreskin keratinocytes at 10 uM after 4 days relative to vehicle treated control", "type": "functional, cell-based", "conditions": "Keratinocyte"}, "[9]": {"system": "Mus musculus", "assay": "Increase in ceramide content in hairless mouse skin at 1% w/v administered topically after 30 hrs relative to vehicle treated control", "type": "functional"}, "[10]": {"system": "Mus musculus", "assay": "Increase in ceramide content in hairless mouse skin at 1% v/v administered topically after 4 weeks relative to vehicle treated control", "type": "functional"}}, "data": [{"smiles": "C[C@H]1[C@H](C)CC[C@]2(C(=O)O)CC[C@]3(C)C(=CC[C@@H]4[C@@]5(C)CC[C@H](O)C(C)(C)[C@@H]5CC[C@]43C)[C@H]12", "note": "[URSOLIC ACID]", "values": [{"measurement": "fold change (FC)", "setting": "[1]", "value": 1.3}, {"measurement": "fold change (FC)", "setting": "[2]", "value": 2.2}]}, {"smiles": "CC(O)C(=O)O", "note": "(configuration not stated) [LACTIC ACID]", "values": [{"measurement": "fold change (FC)", "setting": "[3]", "value": 1.4}, {"measurement": "fold change (FC)", "setting": "[4]", "value": 1.4}, {"measurement": "fold change (FC)", "setting": "[5]", "value": 4.3}]}, {"smiles": "NC(=O)c1cccnc1", "note": "[NIACINAMIDE]", "values": [{"measurement": "fold change (FC)", "setting": "[3]", "value": 1.4}, {"measurement": "fold change (FC)", "setting": "[4]", "value": 1.4}, {"measurement": "fold change (FC)", "setting": "[6]", "value": 4.1}, {"measurement": "fold change (FC)", "setting": "[7]", "value": 1.8}, {"measurement": "fold change (FC)", "setting": "[8]", "value": 1.8}]}, {"smiles": "O=C1CCCCCCCCCCCC(=O)OCCO1", "values": [{"measurement": "fold change (FC)", "setting": "[9]", "value": 1.3}]}, {"smiles": "CCO[C@H]1O[C@H](CO)[C@@H](O)[C@H](O)[C@H]1O", "values": [{"measurement": "fold change (FC)", "setting": "[10]", "value": 1.1}]}]}
